One test concerns IL-1a. In words: DPM-induced IL-1a production in EpiDerm 3D reconstructed skin model. Conditions: 48 hours, FIG. 6. It is filed as cell-based, human. The procedure:
The EpiDerm reconstructed skin system was obtained from the supplier MatTek (catalogue number EPI-200), and the tissue was handled according to the manufacturer's instructions. Briefly, upon delivery, the tissue was removed from its agar medium, washed and then left to recover overnight at 37 C, in a 5% CO2 environment. Then, the tissue was treated with topically-applied DPM (100 μg/ml in PBS, 10 μl/sample) in the presence or absence of the phytoene oleoresin diluted in jojoba wax at concentrations of 0.1, 1 and 2.5%, to a final volume of 30 μl. The following control groups were also set up: naïve tissue (untreated control), vehicle (jojoba wax), DPM-stimulated tissue and N-acetyl cysteine (NAC; positive control). Following addition of the test substances and controls, the reconstructed skin cultures were incubated for a further 48 hours at 37 C, in a 5% CO2 environment. At the end of the treatment period, the medium was collected from the tissue control implants and centrifuged at 250×g for 5 minutes, in order to remove particulate matter. […] IL-1a and IL-6 levels in the thawed medium were determined using commercial ELISA kits (ELISA Max Deluxe Set Human IL-1a catalogue number B265424; ELISA Max Deluxe Set Human IL-6 catalogue number B2852558; both supplied by Enco), according to the manufacturer's instructions.

A further test relates to IL-8. Nature of the test: Inhibition of UVB-induced IL-8 production in cultured HaCaT keratinocytes. It is filed as cell-based, human. Conditions: UVB lamp, test at final phytoene concentration 56 ppm, FIG. 5. The procedure:
Spontaneously transformed adult human keratinocytes of the HaCaT line were grown, maintained, plated and treated with control and test substances as described in Example 1, above. The cultured cells were irradiated using a UVB lamp in order to generate an inflammatory response in the cultured cells. The control substances used in this study were: • Vehicle control (“Control” in FIG. 5) • UVB exposure only (“Untreated”) • 4-Aminobenzoic acid (“PABA”; positive control) The test substance used was a dilution of the composition of the present invention (i.e., containing non-GMO, solvent free phytoene and jojoba oil), yielding a final phytoene concentration of 56 ppm. The IL-8 concentration of the culture cell supernatants was measured as described in Example 1, above.

For the molecule `CC(=O)N[C@@H](CS)C(=O)O` [NAC, N-acetyl cysteine], the “reduction in IL-1a production (positive control)” value with IL-1a is “reduction”.

Consider `Nc1ccc(C(=O)O)cc1` [PABA, 4-Aminobenzoic acid], for which the “reduction in UVB-stimulated IL-8 production” value in the test with IL-8 is recorded as “inhibition”.

The values above are taken from US20240408159A1, “PHYTOENE-CONTAINING OLEORESIN AND COMPOSITION” (LYCORED LTD., priority 2021, published 2024).
